Assay [1] deals with T1, AtPPO1 S305L Y361C L362F Y426M L479M (SEQ ID NO.134) (Arabidopsis thaliana, UniProt P55826, L479M/S305L/Y361C/Y362F/Y426M).
T1 sequence (P55826 35-537 S305L/Y361C/Y362F/Y426M/L479M): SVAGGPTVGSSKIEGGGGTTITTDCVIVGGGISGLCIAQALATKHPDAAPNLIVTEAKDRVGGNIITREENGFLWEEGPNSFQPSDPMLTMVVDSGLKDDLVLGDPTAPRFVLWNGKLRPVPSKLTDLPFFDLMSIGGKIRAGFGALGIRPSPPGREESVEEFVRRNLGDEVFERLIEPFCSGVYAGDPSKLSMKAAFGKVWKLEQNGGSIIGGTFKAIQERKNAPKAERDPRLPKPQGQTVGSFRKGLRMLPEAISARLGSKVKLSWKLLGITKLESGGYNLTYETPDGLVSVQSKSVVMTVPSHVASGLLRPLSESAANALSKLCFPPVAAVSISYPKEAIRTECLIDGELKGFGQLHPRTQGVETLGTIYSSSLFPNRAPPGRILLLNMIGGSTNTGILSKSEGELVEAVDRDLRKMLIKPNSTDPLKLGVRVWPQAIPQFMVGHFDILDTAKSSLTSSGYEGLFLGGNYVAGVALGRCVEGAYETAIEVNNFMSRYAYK
Description: fluorescent Protoporphyrinogen Oxidase assay, crude extract. Type of assay: biochemical. The conditions noted are these: read-out: percentage inhibition.

Assay [2] has as its target T2, AtPPO1 V365L G404A L479N (SEQ ID NO.136) (Arabidopsis thaliana, UniProt P55826, G404A/L479N/V365L).
T2 construct: made in house; host or cells: E. coli BL21 (DE3) hemG, crude extract
T2 sequence (P55826 35-537 V365L/G404A/L479N): T1 sequence (P55826 35-537 S305L/Y361C/Y362F/Y426M/L479M) with L271S, C327Y, F328Y, V331L, G370A, M392Y, M445N
The assay is described as above. Type of assay: biochemical. Particulars: read-out: percentage inhibition.

Residue numbers refer to the chain shown, from its start.

With `CCOC(=O)COc1ncccc1Oc1cc(-n2c(=O)cc(C(F)(F)F)n(C)c2=O)c(F)cc1Cl` [Herbicide A, epyrifenacil], in assay [1], the inhibition (usually how much of the control response was suppressed) at 0.1 ppm came out at 0%, the inhibition at 1 ppm turned out to be 40%, the inhibition at 10 ppm was 83% and the inhibition at 100 ppm stood at 92%. In assay [2], the inhibition at 0.1 ppm came to 58%, the inhibition at 1 ppm is 95%, the inhibition at 10 ppm came out at 100% and the inhibition at 100 ppm is 100%.
Regarding `C#CCN1C(=O)C(F)(F)Oc2cc(F)c(-n3c(=O)n(C)c(=S)n(C)c3=O)cc21` [Herbicide B, trifludimoxazin], in assay [1], the inhibition at 0.1 ppm was 100%, the inhibition at 1 ppm is 100%, the inhibition at 10 ppm turned out to be 100% and the inhibition at 100 ppm was 100%. For the same molecule, in assay [2], the inhibition at 0.1 ppm was found to be 79%, the inhibition at 1 ppm amounted to 100%, the inhibition at 10 ppm was found to be 100% and the inhibition at 100 ppm was 100%.
For `CCOC(=O)C1(C)CC(c2cc(-n3c(=O)cc(C(F)(F)F)n(C)c3=O)c(F)cc2Cl)=NO1` (stereo not shown) [Herbicide C, 3-(2-chloro-4-fluoro-5-(3-methyl-2,6-dioxo-4-trifluoromethyl-3,6-dihydropyrimidin-1(2H)-yl)phenyl)-5-methyl-4,5-dihydroisoxazole-5-carboxylic acid ethyl ester], in assay [1], the inhibition at 0.1 ppm is 19%, the inhibition at 1 ppm is 65%, the inhibition at 10 ppm is 99% and the inhibition at 100 ppm turned out to be 100%. Also, in assay [2], the inhibition at 0.1 ppm stood at 34%, the inhibition at 1 ppm was 90%, the inhibition at 10 ppm came to 99% and the inhibition at 100 ppm was 100%.
For `CCOC(=O)[C@]1(C)CC(c2cc(-n3c(=O)n(C)c(=S)n(C)c3=O)c(F)cc2Cl)=NO1` [Herbicide D, ethyl (5S)-3-[2-chloro-5-(3,5-dimethyl-2,6-dioxo-4-thioxo-1,3,5-triazinan-1-yl)-4-fluoro-phenyl]-5-methyl-4H-isoxazole-5-carboxylate], in assay [1], the inhibition at 0.1 ppm was determined as 0%, the inhibition at 1 ppm is 56%, the inhibition at 10 ppm came out at 85% and the inhibition at 100 ppm came out at 100%. In assay [2], the inhibition at 0.1 ppm was determined as 4%, the inhibition at 1 ppm turned out to be 75%, the inhibition at 10 ppm came to 99% and the inhibition at 100 ppm worked out at 100%.
As for `CC(C)N(C)S(=O)(=O)NC(=O)c1cc(-n2c(=O)cc(C(F)(F)F)n(C)c2=O)c(F)cc1Cl` [Herbicide E, saflufenacil], in assay [1], the inhibition at 0.1 ppm was found to be 0%, the inhibition at 1 ppm is 39%, the inhibition at 10 ppm stood at 80% and the inhibition at 100 ppm is 99%. Further, in assay [2], the inhibition at 0.1 ppm was determined as 0%, the inhibition at 1 ppm was determined as 39%, the inhibition at 10 ppm amounted to 86% and the inhibition at 100 ppm was determined as 100%.
